The source of these data is article PMC6116672, “Discovery of (phenylureido)piperidinyl benzamides as prospective inhibitors of bacterial autolysin E from Staphylococcus aureus” (Journal of Enzyme Inhibition and Medicinal Chemistry, 2018).

For the assay, the target named is AtlE (Staphylococcus aureus, UniProt A0A0H3JT72). Kind of assay: SPR binding affinity to AtlE (steady state 1:1 model). As for the experimental part:
SPR experiments were performed using a Biacore T100 (GE Healthcare) equipped with a Series S sensor chip CM5 (GE Healthcare). PBS buffer (67 mM Na2HPO4, 12.5 mM KH2PO4, 70 mM NaCl, 0,05% P20, pH 7.4) was used for immobilisation of the protein. AtlE was produced as previously described[1] and attached to the surface of the chip by amine coupling. The surface of flow cells 1 and 2 was initially activated with a 10-min pulse of a 1:1 mixture of 0.4 M 1-ethyl-3–(3-dimethylaminopropyl)-carbodiimide hydrochloride and 0.1 M N-hydroxysuccinimide, according to manufacturer recommendations. AtlE was diluted into 10 mM sodium acetate buffer, pH 5.8, to a final concentration of 100 µg/mL, and injected twice for 180 s over the second flow cell. Both flow cells were blocked with a 7-min pulse of 1.0 M ethanolamine. The final immobilisation level was about 4100 RU. Screening was run at 25 °C using PBS (67 mM Na2HPO4, 12.5 mM KH2PO4 pH 7.4, 70 mM NaCl, 0.05% P20) supplemented with 1% or 5% DMSO (Merck) as the running buffer. Selected compounds from the virtual screening studies were tested at two different concentrations: 40 and 400 µM. Each compound was injected for 1 min at a flow-rate of 30 µL/min, and the dissociation was monitored for 30 s. […] KD values were determined by fitting of the data to a 1:1 steady state binding model.
In general terms: Surface plasmon resonance follows binding to a sensor surface in real time, without labels.

Sequence of AtlE (A0A0H3JT72 entry or part of it): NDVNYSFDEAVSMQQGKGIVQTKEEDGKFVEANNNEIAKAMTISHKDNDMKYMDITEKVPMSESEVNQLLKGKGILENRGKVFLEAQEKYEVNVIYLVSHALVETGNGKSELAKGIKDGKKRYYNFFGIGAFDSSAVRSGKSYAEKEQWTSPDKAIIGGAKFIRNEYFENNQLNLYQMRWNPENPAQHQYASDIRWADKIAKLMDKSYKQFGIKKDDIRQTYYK

For `O=C(Nc1cccc(Cl)c1)NC1CCN(c2cccc(C(=O)N3CCc4ccccc4C3)c2)CC1` [Compound 10], the Kd – broadly, the concentration at which binding is half-saturated – amounted to 1900 nM. This lies in the single-digit micromolar range.
